From patent publication US8445409B2, “Use of 5-benzyloxymethyl-1,2-isoxazoline derivatives as a herbicide” (Moghu Research Center Ltd., priority 2007, dated 2013)

What was measured:
Zoysiagrass = test: Turfgrass safety test (sod mat pots), visual phytotoxicity; type: in vivo, Zoysia japonica; conditions: for Phytotoxic effect, visual assessment: Zoysiagrass Week 2 / Phytotoxic effect, visual assessment: Zoysiagrass Week 4 / Phytotoxic effect, visual assessment: Zoysiagrass Week 6: 0-10 scale (10=completely killed)
Description: (§1) Commercially available sod mats of zoysiagrass and bentgrass, Kentucky bluegrass, and perennial ryegrass were purchased. After cutting each turf sod mat in a size of 10 cm×20 cm, it was transplanted to a rectangular plastic pot having a surface area of 300 cm^2 wherein mixed soils including blend of a bed soil (Boonong, Horticultural Nursery Soil No. 3) and sandy loam soil were filled (mixing ratio, 1:1). After transplanting, the grass was mowed (0.5˜1.0 cm in height) once a week, and kept for one month in a greenhouse maintained at 25˜30° C. (day) or 15˜25° C. (night), then the test substance of the present invention was applied at dosage of 4, 2, 1 and 0.5 kg/ha. As a reference, Dithiopyr (32% EC, manufactured by Dongbu Hannong Chemical Company, KOREA) was applied at the recommended rate of 0.48 kg/ha, or twice or quadruple amount thereof, i.e., 0.96 and 1.92 kg/ha, respectively. Spray was made by a track sprayer equipped with a Teejet 8002 nozzle. Spray volume was adjusted to 2,000 L/ha, which was a typical value for an Asian (Korea and Japan) golf course. The spray solution was prepared by dissolving the “test substance” in acetone and adding the same volume of 0.2% (v/v) Tween 20 aqueous solution. Two, four or six weeks after the spray of the test substance, phytotoxicity to the turfgrass were visually evaluated based on 0 to 10 scale (0: no phytotoxic effect, 10: completely killed). The test was conducted in a randomized block design with a three replicates and the results were summarized in the following Table 2 is an average value of the replicates.

Bentgrass = test: as above; type: in vivo; conditions: 0-10 scale (10=completely killed)
Description: as §1

Kentucky bluegrass = test: as above; type: in vivo; conditions: 0-10 scale (10=completely killed)
Description: as §1

Perennial ryegrass = test: as above; type: in vivo; conditions: 0-10 scale (10=completely killed)
Description: as §1

Large crabgrass = test: Herbicidal activity at different growth stages, fresh weight suppression; type: in vivo; conditions: fresh weight two weeks after treatment
Procedure: (§2) To a cup pot having a surface area of 100 cm^2 wherein mixed soils including blend bed soil (Boonong, Horticultural Bed Soil No. 3) and sandy loam soil were filled (mixing ratio, 1:1), seeds of large crabgrass and annual bluegrass were sown consecutively at an one week interval. The pots were moistened by sub-irrigation, and kept in a greenhouse maintained at 25˜30° C. (day) or 15˜25° C. (night). The said weeds were grown to various growth stages from pre-emergence to the four-leaf stage. Then, they were applied with the test substance of the present invention at dosage of 2, 1, 0.5, or 0.25 kg/ha. As a reference herbicide, Dithiopyr (32% EC, manufactured by Dongbu Hannong Chemical Company), was applied at 0.96, 0.48, or 0.24 kg/ha. Spray volume was adjusted to 2,000 L/ha. The method to spray of the test substance and prepare spray solutions were the same as described above. The reference herbicide was used after it was diluted with 0.2% (v/v) Tween 20 aqueous solution. The test was conducted in a randomized block design with three replicates. Two weeks after the treatment, plant parts remained above the pot soil surface were cut and the fresh weight was weighed. Results are given by a suppression ratio relative to the biomass that was obtained from the untreated group (see, Table 3).

Annual bluegrass = test: as above; type: in vivo; conditions: fresh weight two weeks after treatment
Procedure: as §2, with “Then, they were applied with the test substance of the present invention at dosage of 2, 1, 0.5, or 0.25 kg/ha. As a reference herbicide, Dithiopyr (32% EC, manufactured by Dongbu Hannong Chemical Company), was applied at 0.96, 0.48, or 0.24 kg/ha.” left out

Which “Phytotoxic effect, visual assessment: Zoysiagrass Week 2” value (“Phytotoxic effect … Zoysiagrass Week 2” for short) (Zoysiagrass; 0.48 kg/ha (recommended rate)) does the source give for `CSC(=O)c1c(C(F)F)nc(C(F)(F)F)c(C(=O)SC)c1CC(C)C` [Dithiopyr, reference compound] here?
Its value is 1.0.

What about the “Phytotoxic effect, visual assessment: Zoysiagrass Week 4” value (shortened to “Phytotoxic effect … Zoysiagrass Week 4”) (Zoysiagrass; 0.48 kg/ha (recommended rate)) of the same compound?
Its value is 1.0.

And the “Phytotoxic effect, visual assessment: Zoysiagrass Week 6” value (“Phytotoxic effect … Zoysiagrass Week 6” below) (Zoysiagrass; 0.48 kg/ha (recommended rate))?
Its value is 0.7.

And the “Phytotoxic effect … Zoysiagrass Week 2” value (Zoysiagrass; 0.96 kg/ha)?
Its value is 2.3.

What about the “Phytotoxic effect … Zoysiagrass Week 4” value (Zoysiagrass; 0.96 kg/ha) of the same compound?
The value was 1.5.

And the “Phytotoxic effect … Zoysiagrass Week 6” value (Zoysiagrass; 0.96 kg/ha)?
Its value is 1.3.

And the “Phytotoxic effect … Zoysiagrass Week 2” value (Zoysiagrass; 1.92 kg/ha)?
Its value is 3.7.

What about the “Phytotoxic effect … Zoysiagrass Week 4” value (Zoysiagrass; 1.92 kg/ha) of the same compound?
The value was 3.3.

What about the “Phytotoxic effect … Zoysiagrass Week 6” value (Zoysiagrass; 1.92 kg/ha) of the same compound?
Its value is 3.0.

What about the “Phytotoxicity against zoysiagrass (in words)” value (Zoysiagrass; in vivo) of the same compound?
The value was “clearly evidencing the phytotoxicity”.

And the “Phytotoxic effect, visual assessment: Bentgrass Week 2” value (from here on “Phytotoxic effect … Bentgrass Week 2”) (Bentgrass; 0.48 kg/ha (recommended rate))?
Its value is 1.5.

What about the “Phytotoxic effect, visual assessment: Bentgrass Week 4” value (“Phytotoxic effect … Bentgrass Week 4” for short) (Bentgrass; 0.48 kg/ha (recommended rate)) of the same compound?
The value was 0.3.

What about the “Phytotoxic effect, visual assessment: Bentgrass Week 6” value (“Phytotoxic effect … Bentgrass Week 6” for short) (Bentgrass; 0.48 kg/ha (recommended rate)) of the same compound?
Its value is 0.3.

What about the “Phytotoxic effect … Bentgrass Week 2” value (Bentgrass; 0.96 kg/ha) of the same compound?
Its value is 2.3.

What about the “Phytotoxic effect … Bentgrass Week 4” value (Bentgrass; 0.96 kg/ha) of the same compound?
The value was 1.7.

And the “Phytotoxic effect … Bentgrass Week 6” value (Bentgrass; 0.96 kg/ha)?
The value was 2.0.

And the “Phytotoxic effect … Bentgrass Week 2” value (Bentgrass; 1.92 kg/ha)?
Its value is 3.3.

What about the “Phytotoxic effect … Bentgrass Week 4” value (Bentgrass; 1.92 kg/ha) of the same compound?
The value was 4.2.

What about the “Phytotoxic effect … Bentgrass Week 6” value (Bentgrass; 1.92 kg/ha) of the same compound?
The value was 4.2.

What about the “Phytotoxic effect, visual assessment: Kentucky bluegrass Week 2” value (Kentucky bluegrass; 0.48 kg/ha (recommended rate)) of the same compound?
The value was 1.5.

And the “Phytotoxic effect, visual assessment: Kentucky bluegrass Week 4” value (Kentucky bluegrass; 0.48 kg/ha (recommended rate))?
The value was 0.5.

What about the “Phytotoxic effect, visual assessment: Kentucky bluegrass Week 6” value (Kentucky bluegrass; 0.48 kg/ha (recommended rate)) of the same compound?
The value was 0.7.

What about the “Phytotoxic effect, visual assessment: Kentucky bluegrass Week 2” value (Kentucky bluegrass; 0.96 kg/ha) of the same compound?
Its value is 2.2.

What about the “Phytotoxic effect, visual assessment: Kentucky bluegrass Week 4” value (Kentucky bluegrass; 0.96 kg/ha) of the same compound?
The value was 2.7.

What about the “Phytotoxic effect, visual assessment: Kentucky bluegrass Week 6” value (Kentucky bluegrass; 0.96 kg/ha) of the same compound?
Its value is 2.7.

What about the “Phytotoxic effect, visual assessment: Kentucky bluegrass Week 2” value (Kentucky bluegrass; 1.92 kg/ha) of the same compound?
The value was 3.7.

What about the “Phytotoxic effect, visual assessment: Kentucky bluegrass Week 4” value (Kentucky bluegrass; 1.92 kg/ha) of the same compound?
The value was 4.2.

And the “Phytotoxic effect, visual assessment: Kentucky bluegrass Week 6” value (Kentucky bluegrass; 1.92 kg/ha)?
The value was 4.2.

What about the “Phytotoxic effect, visual assessment: Perennial ryegrass Week 2” value (Perennial ryegrass; 0.48 kg/ha (recommended rate)) of the same compound?
Its value is 1.3.

What about the “Phytotoxic effect, visual assessment: Perennial ryegrass Week 4” value (Perennial ryegrass; 0.48 kg/ha (recommended rate)) of the same compound?
Its value is 0.3.

What about the “Phytotoxic effect, visual assessment: Perennial ryegrass Week 6” value (Perennial ryegrass; 0.48 kg/ha (recommended rate)) of the same compound?
Its value is 0.3.

And the “Phytotoxic effect, visual assessment: Perennial ryegrass Week 2” value (Perennial ryegrass; 0.96 kg/ha)?
Its value is 2.0.

And the “Phytotoxic effect, visual assessment: Perennial ryegrass Week 4” value (Perennial ryegrass; 0.96 kg/ha)?
Its value is 2.0.

What about the “Phytotoxic effect, visual assessment: Perennial ryegrass Week 6” value (Perennial ryegrass; 0.96 kg/ha) of the same compound?
The value was 1.3.

What about the “Phytotoxic effect, visual assessment: Perennial ryegrass Week 2” value (Perennial ryegrass; 1.92 kg/ha) of the same compound?
Its value is 3.3.

And the “Phytotoxic effect, visual assessment: Perennial ryegrass Week 4” value (Perennial ryegrass; 1.92 kg/ha)?
Its value is 2.7.

What about the “Phytotoxic effect, visual assessment: Perennial ryegrass Week 6” value (Perennial ryegrass; 1.92 kg/ha) of the same compound?
Its value is 2.3.

What about the “Suppression ratio relative to the biomass of the untreated group: Large crabgrass 1 leaf” value (Large crabgrass; .24 kg/ha) of the same compound?
The value was 100%.

What about the “Suppression ratio relative to the biomass of the untreated group: Large crabgrass 2 leaf” value (Large crabgrass; .24 kg/ha) of the same compound?
Its value is 89%.

And the “Suppression ratio relative to the biomass of the untreated group: Large crabgrass 3 leaf” value (Large crabgrass; .24 kg/ha)?
The value was 86%.

What about the “Suppression ratio relative to the biomass of the untreated group: Large crabgrass 4 leaf” value (Large crabgrass; .24 kg/ha) of the same compound?
Its value is 56%.

And the “Suppression ratio relative to the biomass of the untreated group: Large crabgrass PRE” value (Large crabgrass; .24 kg/ha)?
The value was 100%.

What about the “Suppression ratio relative to the biomass of the untreated group: Large crabgrass 1 leaf” value (Large crabgrass; .48 kg/ha) of the same compound?
The value was 100%.

What about the “Suppression ratio relative to the biomass of the untreated group: Large crabgrass 2 leaf” value (Large crabgrass; .48 kg/ha) of the same compound?
Its value is 95%.

And the “Suppression ratio relative to the biomass of the untreated group: Large crabgrass 3 leaf” value (Large crabgrass; .48 kg/ha)?
The value was 89%.

What about the “Suppression ratio relative to the biomass of the untreated group: Large crabgrass 4 leaf” value (Large crabgrass; .48 kg/ha) of the same compound?
Its value is 57%.

What about the “Suppression ratio relative to the biomass of the untreated group: Large crabgrass PRE” value (Large crabgrass; .48 kg/ha) of the same compound?
Its value is 100%.

What about the “Suppression ratio relative to the biomass of the untreated group: Large crabgrass 1 leaf” value (Large crabgrass; .96 kg/ha) of the same compound?
The value was 100%.

What about the “Suppression ratio relative to the biomass of the untreated group: Large crabgrass 2 leaf” value (Large crabgrass; .96 kg/ha) of the same compound?
Its value is 98%.

And the “Suppression ratio relative to the biomass of the untreated group: Large crabgrass 3 leaf” value (Large crabgrass; .96 kg/ha)?
Its value is 89%.

What about the “Suppression ratio relative to the biomass of the untreated group: Large crabgrass 4 leaf” value (Large crabgrass; .96 kg/ha) of the same compound?
The value was 66%.

And the “Suppression ratio relative to the biomass of the untreated group: Large crabgrass PRE” value (Large crabgrass; .96 kg/ha)?
The value was 100%.

And the “Suppression ratio relative to the biomass of the untreated group: Annual bluegrass 1 leaf” value (Annual bluegrass; .24 kg/ha)?
The value was 90%.

What about the “Suppression ratio relative to the biomass of the untreated group: Annual bluegrass 2 leaf” value (Annual bluegrass; .24 kg/ha) of the same compound?
Its value is 87%.

And the “Suppression ratio relative to the biomass of the untreated group: Annual bluegrass 3 leaf” value (Annual bluegrass; .24 kg/ha)?
The value was 46%.

And the “Suppression ratio relative to the biomass of the untreated group: Annual bluegrass 4 leaf” value (Annual bluegrass; .24 kg/ha)?
Its value is 4%.

And the “Suppression ratio relative to the biomass of the untreated group: Annual bluegrass PRE” value (Annual bluegrass; .24 kg/ha)?
The value was 100%.

And the “Suppression ratio relative to the biomass of the untreated group: Annual bluegrass 1 leaf” value (Annual bluegrass; .48 kg/ha)?
Its value is 95%.

And the “Suppression ratio relative to the biomass of the untreated group: Annual bluegrass 2 leaf” value (Annual bluegrass; .48 kg/ha)?
The value was 88%.

What about the “Suppression ratio relative to the biomass of the untreated group: Annual bluegrass 3 leaf” value (Annual bluegrass; .48 kg/ha) of the same compound?
Its value is 44%.

What about the “Suppression ratio relative to the biomass of the untreated group: Annual bluegrass 4 leaf” value (Annual bluegrass; .48 kg/ha) of the same compound?
The value was 10%.

What about the “Suppression ratio relative to the biomass of the untreated group: Annual bluegrass PRE” value (Annual bluegrass; .48 kg/ha) of the same compound?
The value was 100%.

What about the “Suppression ratio relative to the biomass of the untreated group: Annual bluegrass 1 leaf” value (Annual bluegrass; .96 kg/ha) of the same compound?
Its value is 97%.

What about the “Suppression ratio relative to the biomass of the untreated group: Annual bluegrass 2 leaf” value (Annual bluegrass; .96 kg/ha) of the same compound?
Its value is 91%.

What about the “Suppression ratio relative to the biomass of the untreated group: Annual bluegrass 3 leaf” value (Annual bluegrass; .96 kg/ha) of the same compound?
Its value is 61%.

What about the “Suppression ratio relative to the biomass of the untreated group: Annual bluegrass 4 leaf” value (Annual bluegrass; .96 kg/ha) of the same compound?
The value was 35%.

And the “Suppression ratio relative to the biomass of the untreated group: Annual bluegrass PRE” value (Annual bluegrass; .96 kg/ha)?
Its value is 100%.
